Reference: patent EP0638573A1, “Crystalline hydrates of cephalosporin and process for preparation thereof” (LUCKY LTD., priority 1993, dated 1995)
In brackets after ≈: the same amount, converted by molar mass. Read-outs that look alike come from different tables or passages of the source.

Tests used:
[1] = tested on: Acinetobacter calcoaceticus ATCC15473; assay: MIC, doubling dilution method (NCCLS), Muller-Hinton agar; assay type: cell-based; settings: 20 hours at 37°C
Experimental: (§1) Antibiotic activities of the crystalline compound obtained in Example 1 were evaluated by way of determining the minimum inhibitory concentration(MIC) for the microorganisms listed in Table 2 in vitro.
(§2) The […] was determined in accordance with the doubling dilution method(NCCLS). After the test compound was dispersed in a Muller-Hinton agar medium, the medium was inoculated with 2µl of a test strain having 10⁷ CFU/ml and, then, incubated for 20 hours at 37°C.
(§3) For comparison, antibiotic abilities of the amorphous formula(I) cephalosporin obtained in Preparation Example were also determined as above; and are shown in Table 2.

[2] = tested on: Bacillus cereus ATCC11778; assay: as above; assay type: cell-based; settings: 20 hours at 37°C
Experimental: as §1, §2, §3

[3] = tested on: Citrobacter freundii ATCC8090; assay: as above; assay type: cell-based; settings: 20 hours at 37°C
Experimental: as §1, §2, §3

[4] = tested on: Enterobacter aerogenes ATCC29751; assay: as above; assay type: cell-based; settings: 20 hours at 37°C
Experimental: as §1, §2, §3

[5] = tested on: Enterobacter cloacae ATCC27508; assay: as above; assay type: cell-based; settings: 20 hours at 37°C
Experimental: as §1, §2, §3

[6] = tested on: Escherichia coli ATCC10536; assay: as above; assay type: cell-based; settings: 20 hours at 37°C
Experimental: as §1, §2, §3

[7] = tested on: Escherichia coli ATCC25922; assay: as above; assay type: cell-based; settings: 20 hours at 37°C
Experimental: as §1, §2, §3

[8] = tested on: Klebsiella pneumoniae ATCC10031; assay: as above; assay type: cell-based; settings: 20 hours at 37°C
Experimental: as §1, §2, §3

[9] = tested on: Micrococcus luteus ATCC9341; assay: as above; assay type: cell-based; settings: 20 hours at 37°C
Experimental: as §1, §2, §3

[10] = tested on: Morganella morganii ATCC8076h; assay: as above; assay type: cell-based; settings: 20 hours at 37°C
Experimental: as §1, §2, §3

[11] = tested on: Proteus mirabilis ATCC25933; assay: as above; assay type: cell-based; settings: 20 hours at 37°C
Experimental: as §1, §2, §3

[12] = tested on: Proteus vulgaris ATCC6059; assay: as above; assay type: cell-based; settings: 20 hours at 37°C
Experimental: as §1, §2, §3

[13] = tested on: Providencia rettgeri ATCC9250; assay: as above; assay type: cell-based; settings: 20 hours at 37°C
Experimental: as §1, §2, §3

[14] = tested on: Pseudomonas aeruginosa ATCC10145; assay: as above; assay type: cell-based; settings: 20 hours at 37°C
Experimental: as §1, §2, §3

[15] = tested on: Pseudomonas aeruginosa ATCC25619; assay: as above; assay type: cell-based; settings: 20 hours at 37°C
Experimental: as §1, §2, §3

[16] = tested on: Pseudomonas aeruginosa ATCC27853; assay: as above; assay type: cell-based; settings: 20 hours at 37°C
Experimental: as §1, §2, §3

[17] = tested on: Salmonella typhimurium ATCC14028; assay: as above; assay type: cell-based; settings: 20 hours at 37°C
Experimental: as §1, §2, §3

[18] = tested on: Serratia marcescens ATCC27117; assay: as above; assay type: cell-based; settings: 20 hours at 37°C
Experimental: as §1, §2, §3

[19] = tested on: Shigella flexneri ATCC11836; assay: as above; assay type: cell-based; settings: 20 hours at 37°C
Experimental: as §1, §2, §3

[20] = tested on: Shigella sonnei ATCC11060; assay: as above; assay type: cell-based; settings: 20 hours at 37°C
Experimental: as §1, §2, §3

[21] = tested on: Staphylococcus aureus ATCC10537; assay: as above; assay type: cell-based; settings: 20 hours at 37°C
Experimental: as §1, §2, §3

[22] = tested on: Staphylococcus aureus ATCC6538p; assay: as above; assay type: cell-based; settings: 20 hours at 37°C
Experimental: as §1, §2, §3

[23] = tested on: Streptococcus epidermidis ATCC12228; assay: as above; assay type: cell-based; settings: 20 hours at 37°C
Experimental: as §1, §2, §3

[24] = tested on: Streptococcus faecalis ATCC29212; assay: as above; assay type: cell-based; settings: 20 hours at 37°C
Experimental: as §1, §2, §3

[25] = Heat-stability test: storage at 50°C, decomposition by liquid chromatography; assay type: physicochemical
Experimental: The crystalline hydrate of the compound obtained in Example 1 and the amorphous cephalosporin obtained in Preparation Example were stored at 50°C. After the respective periods of one week and two weeks, the heat stability of the compounds was measured by determining their level of decomposition through the use of liquid chromatography.

[26] = tested on: Bacillus megaterium ATTCC9885; assay: MIC, doubling dilution method (NCCLS), Muller-Hinton agar; assay type: cell-based; settings: Priestia megaterium, 20 hours at 37°C
Experimental: as §1, §2, §3

Compound	MIC [1] [µg/mL]	MIC [3] [µg/mL]	MIC [4] [µg/mL]	MIC [6] [µg/mL]	MIC [7] [µg/mL]	MIC [8] [µg/mL]	MIC [12] [µg/mL]	MIC [15] [µg/mL]	MIC [16] [µg/mL]	MIC [17] [µg/mL]	MIC [18] [µg/mL]	MIC [20] [µg/mL]	Decomposition Rate ([25]; storage period (50°C): 0) [%]	Decomposition Rate ([25]; storage period (50°C): 1 week) [%]	Decomposition Rate ([25]; storage period (50°C): 2 week) [%]	further results
Cc1c(N)nc(SCC2=C(C(=O)[O-])N3C(=O)C(NC(=O)/C(=N\OC(C)(C)C(=O)O)c4csc(N)n4)[C@H]3SC2)[n+](N)c1N (stereo partly shown) [Amorphous Compound, 7-[(Z)-2-(2aminothiazole-4-yl)-2-(2-carboxyprop-2-oxyimino)acetamido]-3-(5-methyl-1,4,6-triamino-pyrimidinium-2-yl)thiomethyl-3-cephem-4-carboxylate, reference compound]	4 (≈ 6.26 µM)	0.063 (≈ 0.0986 µM)	1 (≈ 1.57 µM)	0.063 (≈ 0.0986 µM)	0.13 (≈ 0.204 µM)	0.063 (≈ 0.0986 µM)	0.063 (≈ 0.0986 µM)	2 (≈ 3.13 µM)	2 (≈ 3.13 µM)	0.13 (≈ 0.204 µM)	0.13 (≈ 0.204 µM)	0.063 (≈ 0.0986 µM)	0	4.2	5.2	MIC [2]: 128 µg/mL (≈ 200 µM); MIC [5]: 0.016 µg/mL (≈ 0.0251 µM); MIC [9]: 0.5 µg/mL (≈ 0.783 µM); MIC [10]: <=0.008 mcg/ml; MIC [11]: 0.031 µg/mL (≈ 0.0485 µM); MIC [13]: <=0.008 mcg/ml; MIC [14]: 2 µg/mL (≈ 3.13 µM); MIC [19]: 0.031 µg/mL (≈ 0.0485 µM); MIC [21]: 2 µg/mL (≈ 3.13 µM); MIC [22]: 4 µg/mL (≈ 6.26 µM); MIC [23]: 2 µg/mL (≈ 3.13 µM); MIC [24]: >128 µg/mL
Cc1c(N)nc(SCC2=C(C(=O)[O-])N3C(=O)C(NC(=O)/C(=N\OC(C)(C)C(=O)O)c4csc(N)n4)[C@H]3SC2)[n+](N)c1N (stereo partly shown) [Test Compound, 7-[(Z)-2-(2-aminothiazole-4-yl)-2-(2-carboxyprop-2-oxyimino)acetamido]-3-(5-methyl-1,4,6-triaminopyrimidinium-2-yl)thiomethyl-3-cephem-4-carboxylate]	1 (≈ 1.57 µM)	0.016 (≈ 0.0251 µM)	0.25 (≈ 0.391 µM)	0.031 (≈ 0.0485 µM)	0.031 (≈ 0.0485 µM)	0.016 (≈ 0.0251 µM)	0.031 (≈ 0.0485 µM)	0.5 (≈ 0.783 µM)	0.5 (≈ 0.783 µM)	0.063 (≈ 0.0986 µM)	0.063 (≈ 0.0986 µM)	0.031 (≈ 0.0485 µM)	0	0.4	0.9	MIC ([2]; Bacillus cereus, ATCC11778, 20 h, read-out: MIC): 64 µg/mL (≈ 100 µM); MIC [26]: 0.13 µg/mL (≈ 0.204 µM); MIC ([5]; Enterobacter cloacae, ATCC27508, 20 h, read-out: MIC): ≤ 0.008 µg/mL; MIC ([9]; Micrococcus luteus, ATCC9341, 20 h, read-out: MIC): 0.25 µg/mL (≈ 0.391 µM); MIC ([10]; read-out: MIC): ≤ 0.008 µg/mL; MIC ([11]; Proteus mirabilis, ATCC25933, 20 h, read-out: MIC): 0.016 µg/mL (≈ 0.0251 µM); MIC ([13]; read-out: MIC): ≤ 0.008 µg/mL; MIC ([14]; Pseudomonas aeruginosa, ATCC10145, 20 h, read-out: MIC): 1 µg/mL (≈ 1.57 µM); MIC ([19]; Shigella flexneri, ATCC11836, 20 h, read-out: MIC): 0.016 µg/mL (≈ 0.0251 µM); MIC ([21]; read-out: MIC): 2 µg/mL (≈ 3.13 µM); MIC ([22]; read-out: MIC): 4 µg/mL (≈ 6.26 µM); MIC ([23]; Streptococcus, ATCC12228, 20 h, read-out: MIC): 1 µg/mL (≈ 1.57 µM); MIC ([24]; Enterococcus faecalis, read-out: MIC): > 128 µg/mL
